Read-outs that look alike come from different tables or passages of the source.
Tests used:
[1] = biological target: T1, MMP-2 (Homo sapiens, UniProt P08253); test: MMP-2 assay (Anaspec kit); type: biochemical
T1 construct: purchased Anaspec, Inc. 71151/71155
T1 sequence (P08253 110-660): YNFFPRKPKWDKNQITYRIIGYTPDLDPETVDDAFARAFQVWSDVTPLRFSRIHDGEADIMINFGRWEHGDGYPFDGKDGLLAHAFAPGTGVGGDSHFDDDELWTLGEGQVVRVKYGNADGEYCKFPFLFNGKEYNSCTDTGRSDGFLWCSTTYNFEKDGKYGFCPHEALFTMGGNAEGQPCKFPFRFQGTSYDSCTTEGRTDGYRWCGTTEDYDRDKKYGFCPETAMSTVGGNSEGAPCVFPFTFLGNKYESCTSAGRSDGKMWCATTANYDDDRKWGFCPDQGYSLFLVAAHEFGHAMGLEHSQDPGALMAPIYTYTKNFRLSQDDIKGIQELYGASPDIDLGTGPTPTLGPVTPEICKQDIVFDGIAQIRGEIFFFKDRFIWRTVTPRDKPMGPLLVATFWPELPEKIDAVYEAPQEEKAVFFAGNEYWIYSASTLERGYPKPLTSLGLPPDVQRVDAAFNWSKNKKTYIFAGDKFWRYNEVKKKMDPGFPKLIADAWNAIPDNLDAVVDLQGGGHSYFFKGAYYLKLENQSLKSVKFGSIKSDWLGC

[2] = biological target: BoNT A (Clostridium botulinum, UniProt P0DPI0); test: biochemical
Sequence of BoNT A (P0DPI0 whole entry, looked up): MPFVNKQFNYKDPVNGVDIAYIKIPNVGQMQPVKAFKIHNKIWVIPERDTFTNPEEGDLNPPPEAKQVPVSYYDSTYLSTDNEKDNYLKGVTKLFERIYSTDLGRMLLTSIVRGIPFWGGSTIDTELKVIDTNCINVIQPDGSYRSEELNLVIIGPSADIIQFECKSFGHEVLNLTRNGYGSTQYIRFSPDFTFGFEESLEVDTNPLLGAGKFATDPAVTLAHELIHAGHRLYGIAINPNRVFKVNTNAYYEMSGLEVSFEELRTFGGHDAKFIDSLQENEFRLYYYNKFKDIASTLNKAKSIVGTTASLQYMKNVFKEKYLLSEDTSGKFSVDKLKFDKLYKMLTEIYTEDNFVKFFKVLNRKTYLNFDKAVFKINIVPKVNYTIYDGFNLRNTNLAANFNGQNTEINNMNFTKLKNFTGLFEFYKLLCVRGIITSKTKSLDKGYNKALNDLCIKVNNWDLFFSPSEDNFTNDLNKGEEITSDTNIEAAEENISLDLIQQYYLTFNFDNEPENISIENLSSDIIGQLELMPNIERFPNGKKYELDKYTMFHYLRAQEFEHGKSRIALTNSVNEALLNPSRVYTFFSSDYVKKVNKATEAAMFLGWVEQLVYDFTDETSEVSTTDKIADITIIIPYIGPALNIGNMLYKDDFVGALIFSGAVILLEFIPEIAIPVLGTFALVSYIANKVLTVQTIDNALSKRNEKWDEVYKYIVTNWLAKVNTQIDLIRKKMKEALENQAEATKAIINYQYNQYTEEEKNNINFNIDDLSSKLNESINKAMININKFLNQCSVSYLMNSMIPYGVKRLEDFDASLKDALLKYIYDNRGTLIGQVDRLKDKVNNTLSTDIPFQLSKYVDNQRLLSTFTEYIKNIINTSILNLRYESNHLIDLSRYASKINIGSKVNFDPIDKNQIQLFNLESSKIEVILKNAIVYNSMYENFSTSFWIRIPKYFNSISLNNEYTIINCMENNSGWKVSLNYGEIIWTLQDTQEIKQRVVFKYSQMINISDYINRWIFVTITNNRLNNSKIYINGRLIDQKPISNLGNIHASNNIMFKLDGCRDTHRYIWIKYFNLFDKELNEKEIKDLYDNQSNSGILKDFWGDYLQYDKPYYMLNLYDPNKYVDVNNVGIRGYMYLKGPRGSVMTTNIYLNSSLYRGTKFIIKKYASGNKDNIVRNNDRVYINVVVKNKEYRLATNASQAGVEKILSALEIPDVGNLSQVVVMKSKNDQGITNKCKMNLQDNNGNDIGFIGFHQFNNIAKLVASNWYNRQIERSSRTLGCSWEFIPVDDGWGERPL

[3] = biological target: T2, MMP-9 (Homo sapiens, UniProt P14780); test: MMP-9 assay (Anaspec kit); type: biochemical
T2 construct: purchased Anaspec, Inc. 71151/71155
T2 sequence (P14780 107-707 limits assumed): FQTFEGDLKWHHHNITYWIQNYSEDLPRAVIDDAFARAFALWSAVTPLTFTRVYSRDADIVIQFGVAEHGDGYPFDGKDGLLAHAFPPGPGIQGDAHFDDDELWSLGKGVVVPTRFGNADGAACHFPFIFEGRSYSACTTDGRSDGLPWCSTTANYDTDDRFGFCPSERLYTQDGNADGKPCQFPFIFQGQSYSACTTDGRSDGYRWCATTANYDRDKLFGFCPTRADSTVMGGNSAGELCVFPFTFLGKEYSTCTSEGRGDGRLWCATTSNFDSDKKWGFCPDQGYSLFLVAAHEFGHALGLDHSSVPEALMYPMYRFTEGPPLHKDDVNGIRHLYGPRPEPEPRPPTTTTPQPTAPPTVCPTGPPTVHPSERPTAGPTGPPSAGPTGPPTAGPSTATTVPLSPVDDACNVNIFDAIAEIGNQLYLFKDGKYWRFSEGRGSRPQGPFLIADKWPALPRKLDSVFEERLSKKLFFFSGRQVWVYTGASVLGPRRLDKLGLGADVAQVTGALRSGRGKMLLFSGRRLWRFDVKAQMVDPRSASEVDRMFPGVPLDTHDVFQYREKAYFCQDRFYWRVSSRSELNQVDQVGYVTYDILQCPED

[4] = biological target: lethal factor (LF) (Bacillus anthracis, UniProt P15917); test: biochemical; type: biochemical
Sequence of lethal factor (LF) (P15917 34-809 limits assumed): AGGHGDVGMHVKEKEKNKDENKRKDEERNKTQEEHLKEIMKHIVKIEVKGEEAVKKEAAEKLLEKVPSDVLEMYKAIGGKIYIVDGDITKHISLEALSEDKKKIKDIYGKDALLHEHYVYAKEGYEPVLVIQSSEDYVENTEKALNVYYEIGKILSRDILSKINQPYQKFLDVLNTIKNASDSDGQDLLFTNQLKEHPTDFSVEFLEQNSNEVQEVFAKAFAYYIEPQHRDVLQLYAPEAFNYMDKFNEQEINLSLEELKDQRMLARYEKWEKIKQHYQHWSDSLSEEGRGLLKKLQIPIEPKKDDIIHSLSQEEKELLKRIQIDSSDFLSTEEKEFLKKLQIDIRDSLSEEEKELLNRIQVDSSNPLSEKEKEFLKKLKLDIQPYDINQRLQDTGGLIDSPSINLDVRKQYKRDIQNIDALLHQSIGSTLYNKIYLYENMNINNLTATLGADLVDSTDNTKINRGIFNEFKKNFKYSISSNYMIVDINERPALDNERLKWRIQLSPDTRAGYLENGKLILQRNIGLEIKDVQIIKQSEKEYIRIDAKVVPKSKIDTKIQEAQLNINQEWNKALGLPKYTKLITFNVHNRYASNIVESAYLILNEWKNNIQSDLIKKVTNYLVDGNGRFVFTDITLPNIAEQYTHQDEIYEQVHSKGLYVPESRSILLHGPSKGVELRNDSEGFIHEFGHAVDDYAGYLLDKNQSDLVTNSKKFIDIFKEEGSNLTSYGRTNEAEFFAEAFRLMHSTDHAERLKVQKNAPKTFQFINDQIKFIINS

SMILES | IC50 [1] [µM] | IC50 [2] [µM] | IC50 [3] [µM] | IC50 [4] [µM] | IC50 ([1]; read-out: MMP2 IC50) [µM] | IC50 ([4]; pH 7.4, read-out: LF IC50) [µM] | inhibition of MMP-2 (in words) [1] | inhibition of MMP-9 (in words) [3]
COc1ccc(-c2cc(C=C3SC(=S)N(CC(=O)O)C3=O)no2)cc1 [Compound 23, 2-(5-((5-(4-methoxyphenyl)isoxazol-3-yl)methylene)-4-oxo-2-thioxothiazolidin-3-yl)acetic acid] | 6.62 | 194 | > 100 | – | – | – | – | –
O=C(O)CN1C(=O)C(=Cc2cc(-c3ccc(Cl)cc3)on2)SC1=S [Compound 24, 2-(5-((5-(4-chlorophenyl)isoxazol-3-yl)methylene)-4-oxo-2-thioxothiazolidin-3-yl)acetic acid] | 19.2 | 82.7 | > 100 | – | – | – | – | –
Cc1ccc(-c2cc(C=C3SC(=S)N(CC(=O)O)C3=O)no2)cc1 [Compound 22, 2-(4-oxo-2-thioxo-5-((5-p-tolylisoxazol-3-yl)methylene)thiazolidin-3-yl)acetic acid] | < 10 | 130 | > 100 | 5.9 | – | – | – | –
O=C(O)CN1C(=O)/C(=C/c2cc(-c3ccco3)on2)SC1=S [Compound 20, (Z)-2-(5-((5-(furan-2-yl)isoxazol-3-yl)methylene)-4-oxo-2-thioxothiazolidin-3-yl)acetic acid] | – | > 200 | – | – | 39.4 | 17 | – | –
O=C(O)CN1C(=O)/C(=C2/C(=O)N(CC(=O)Nc3cccc(Cl)c3)c3ccccc32)SC1=S [Compound 62, (Z)-2-(5-(1-(2-(3-chlorophenylamino)-2-oxoethyl)-2-oxoindolin-3-ylidene)-4-oxo-2-thioxothiazolidin-3-yl)acetic acid] | > 25 | > 200 | > 25 | – | – | 4.4 | – | –
O=C(O)CN1C(=O)/C(=C/c2cn(-c3ccc(Br)cc3)nc2-c2ccc(Br)cc2)SC1=S [Compound 35, (Z)-2-(5-((1,3-bis(4-bromophenyl)-1H-pyrazol-4-yl)methylene)-4-oxo-2-thioxothiazolidin-3-yl)acetic acid] | – | 5.45 | – | – | – | 3.35 | did not inhibit | did not inhibit
O=C(O)CN1C(=O)C(=Cc2cc(-c3ccc(Br)cc3)on2)SC1=S [Compound 26, 2-(5-((5-(4-bromophenyl)isoxazol-3-yl)methylene)-4-oxo-2-thioxothiazolidin-3-yl)acetic acid] | > 100 | > 200 | 27.4 | 17.3 | – | – | – | –
O=C(O)CN1C(=O)/C(=C/c2cn(-c3ccc(F)cc3F)nc2-c2cccnc2)SC1=S [Compound 32, (Z)-2-(5-((1-(2,4-difluorophenyl)-3-(pyridin-3-yl)-1H-pyrazol-4-yl)methylene)-4-oxo-2-thioxothiazolidin-3-yl)acetic acid] | 13.7 | 71.5 | – | – | – | 2.99 | – | –
Cc1ccc2cc(/C=C3\SC(=S)N(CC(=O)O)C3=O)ccc2n1 [Compound 54, (Z)-2-(5-((2-methylquinolin-6-yl)methylene)-4-oxo-2-thioxothiazolidin-3-yl)acetic acid] | – | > 200 | – | – | 18 | 5.25 | – | –
O=C(O)CN1C(=O)/C(=C/c2sc(Br)c3c2OCCO3)SC1=S [Compound 47, (Z)-2-(5-((7-bromo-2,3-dihydrothieno[3,4-b][1,4]dioxin-5-yl)methylene)4-oxo-2-thioxothiazolidin-3-yl)acetic acid] | – | > 200 | – | – | 50.6 | 11.4 | – | –
O=C(O)CN1C(=O)/C(=C/c2cn(-c3ccc(F)cc3)nc2-c2ccc(F)cc2)SC1=S [Compound 33, (Z)-2-(5-((1,3-bis(4-fluorophenyl)-1H-pyrazol-4-yl)methylene)-4-oxo-2-thioxothiazolidin-3-yl)acetic acid] | 39.4 | 52.6 | – | – | – | 4.22 | – | –
O=C1/C(=C/c2cn(-c3ccccc3)nc2-c2ccc(Cl)cc2)SC(=S)N1CCS(=O)(=O)O [Compound 41, (Z)-2-(5-((3-(4-chlorophenyl)-1-phenyl-1H-pyrazol-4-yl)methylene)-4-oxo-2-thioxothiazolidin-3-yl)ethanesulfonic acid] | 26.9 | > 200 | – | – | – | 3.66 | – | –
